# Data published in EP0559893A1, “XANTHINE DERIVATIVE” (priority 1990, dated 1992).
# What was measured:
# Adenosine A₁ receptor = target: T1, Adenosine A₁ receptor (Cavia porcellus, UniProt P47745); assay: Adenosine A1 receptor binding test (3H-CHA binding); conditions: for inhibition at 100 µM: read-out: A1 Receptor Inhibition (%) 10^-4 M; for inhibition at 10 µM: read-out: A1 Receptor Inhibition (%) 10^-5 M
# T1 sequence (P47745 1-326): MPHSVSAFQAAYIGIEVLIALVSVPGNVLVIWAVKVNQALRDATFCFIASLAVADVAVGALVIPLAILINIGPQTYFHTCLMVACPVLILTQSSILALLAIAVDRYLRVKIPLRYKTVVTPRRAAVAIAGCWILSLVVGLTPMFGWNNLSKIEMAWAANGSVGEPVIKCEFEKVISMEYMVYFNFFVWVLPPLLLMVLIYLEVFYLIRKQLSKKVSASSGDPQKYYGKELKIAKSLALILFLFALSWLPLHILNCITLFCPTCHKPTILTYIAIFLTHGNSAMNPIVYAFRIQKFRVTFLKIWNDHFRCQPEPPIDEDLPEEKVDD
# Adenosine A₂ receptor = Adenosine A₂ receptor (Rattus norvegicus, UniProt P30543); assay: Adenosine A2 receptor binding test (3H-NECA binding); conditions: for inhibition at 100 µM: read-out: A2 Receptor Inhibition (%) 10^-4 M; for inhibition at 10 µM: read-out: A2 Receptor Inhibition (%) 10^-5 M; for Ratio of Affinity with Receptor (A2 /A1 ): A2 (rat corpus striatum) versus A1 (guinea pig cerebrum)
# dd male mice = assay: Acute toxicity test; type: in vivo; conditions: oral administration; mortality observed 7 days after the administration
# Description: Three dd male mice having a weight of 20 ± 1 g were used for one group. A test compound was orally administered to the mice.
# The mortality was observed 7 days after the administration to determine the minimum lethal dose (MLD).
# calvaria = assay: Inhibitory effect on bone absorption (PTH-stimulated calcium release from cultured calvaria); type: cell-based, mouse; conditions: test compound 10^-4 M, PTH 10^-8 M; for inhibition at 100 µM: Mus musculus, bone absorption, 96 hours, read-out: Inhibition Rate (%); for Ca Concentration (mg/dl) (n = 6, mean +/- S.E.M.): culture collected after 96 hours; for bone absorption by PTH (result in words): Duncan's test
# Method: The calvaria was excised from a newborn dd mouse (5 to 6 days old) under sterile conditions. The calvaria was washed with a modified Dulbecco phosphate buffer physiological saline solution containing neither calcium nor magnesium (a product of Gibco Oriental), and divided into two parts along the center suture.
# The culture medium was renewed 48 hours after the start of culturing. For determining the amount of calcium liberated from the bone by the action of PTH (bone absorption), the calcium content in the culture as collected after 96 hours of culturing was measured. The calcium concentration in the culture was measured with Calcium C Test Wako (manufactured by Wako Pure Chemical Industries, Ltd.). The bone absorption rate was calculated using the following equation. The test of significance of the inhibitory effect on bone absorption was performed by the Duncan's multi-weight comparative test. Inhibition rate (%) = [(CP - CD )/(CP - C₀)] × 100 [formula] CD indicates the total calcium concentration in the culture treated with both the test compound and PTH; CP indicates the total calcium concentration in the culture treated with only PTH (control); and C₀ indicates the total calcium concentration in the culture containing neither the test compound nor PTH.
# ddY male mice = assay: Mouse locomotor activity; type: in vivo; conditions: po, enhancement of locomotor activity, measured for 3 hours after administration, read-out: Minimum Effective Dose (mg/kg, p.o.)
# Method: Five ddY male mice having a weight of 19 to 21 g were used for one group. A test compound and theophylline were orally administered to the mice and then the mice were out in an acrylic test cage (length 26 × width 45 × height 25 cm). The amount of locomotor activity of each mouse was measured with Automex II (manufactured by Columbus) for 3 hours after the administration. Test of significance between the control group and the test compound-administered group was performed by the Student's t-test, and enhancement of the locomotor activity was judged. Furthermore, the minimum effective dose showing a significant difference was determined.
# Sequence of Adenosine A₂ receptor (P30543 whole entry): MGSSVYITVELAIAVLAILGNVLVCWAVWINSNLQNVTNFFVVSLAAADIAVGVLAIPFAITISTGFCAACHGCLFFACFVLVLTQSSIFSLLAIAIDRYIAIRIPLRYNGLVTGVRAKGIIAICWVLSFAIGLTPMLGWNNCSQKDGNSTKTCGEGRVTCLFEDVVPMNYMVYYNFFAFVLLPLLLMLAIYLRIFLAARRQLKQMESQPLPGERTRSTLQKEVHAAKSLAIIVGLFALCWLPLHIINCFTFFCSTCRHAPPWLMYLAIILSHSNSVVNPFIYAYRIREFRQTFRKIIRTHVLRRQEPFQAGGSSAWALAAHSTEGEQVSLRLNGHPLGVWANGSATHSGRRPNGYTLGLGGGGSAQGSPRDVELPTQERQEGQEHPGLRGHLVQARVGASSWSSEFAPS
compound,measurement,setting,value
"C=CCn1c(=O)c2c(nc(/C=C/c3cc(OC)c(OC)c(OC)c3)n2C)n(CC=C)c1=O [Compound 24, 1,3-Diallyl-7-methyl-8-[(E)-3,4,5-trimethoxystyryl]xanthine]",Ki,Adenosine A₁ receptor,> 100 µM
same,inhibition at 100 µM,Adenosine A₁ receptor,31%
same,inhibition at 10 µM,Adenosine A₁ receptor,31%
same,inhibition at 100 µM,Adenosine A₂ receptor,96%
same,inhibition at 10 µM,Adenosine A₂ receptor,93%
"CCCn1c(=O)c2nc(/C=C/c3ccc(OC)cc3)[nH]c2n(CCC)c1=O [Compound 9, 1,3-Dipropyl-8-[(E)-4-methoxystyryl]xanthine]",MLD,dd male mice,>300 mg/kg
"CCCn1c(=O)c2nc(/C=C/c3ccc(Cl)cc3)[nH]c2n(CCC)c1=O [Compound 5, 8-[(E)-4-Chlorostyryl]-1,3-dipropylxanthine]",MLD,dd male mice,>300 mg/kg
"CCCn1c(=O)c2c(nc(/C=C/c3cccs3)n2C)n(CCC)c1=O [Compound 18, 1,3-Dipropyl-7-methyl-8-[2-(E)-(2-thienyl)vinyl]xanthine]",MLD,dd male mice,>300 mg/kg
"CCCn1c(=O)c2[nH]c(/C=C/c3cccs3)nc2n(CCC)c1=O [Compound 17, 1,3-Dipropyl-8-[2-(E)-(2-thienyl)vinyl]xanthine]",MLD,dd male mice,>300 mg/kg
"CCCn1c(=O)c2c(nc(/C=C/c3cc(OC)c(OC)c(OC)c3)n2C)n(CCC)c1=O [Compound 14, 1,3-Dipropyl-7-methyl-8-[(E)-3,4,5-trimethoxystyryl]xanthine]",inhibition at 100 µM,calvaria,119%
same,bone absorption inhibition rate compared with Comparative Compound X (result in words),calvaria,significantly higher than that of Comparative Compound X
same,"Ca Concentration (mg/dl) (n = 6, mean +/- S.E.M.)",calvaria,7.66 ± 0.08 ++ mg/dl
same,bone absorption by PTH (result in words),calvaria,significantly inhibited bone absorption by PTH
same,Ki,Adenosine A₁ receptor,65 µM
same,inhibition at 100 µM,Adenosine A₁ receptor,50%
same,inhibition at 10 µM,Adenosine A₁ receptor,30%
same,MLD,dd male mice,>300 mg/kg
same,minimal effective dose,ddY male mice,10 mg/kg
same,Ratio of Affinity with Receptor (A2 /A1 ),Adenosine A₂ receptor,4600
same,inhibition at 100 µM,Adenosine A₂ receptor,92%
same,inhibition at 10 µM,Adenosine A₂ receptor,94%
"CCCn1c(=O)c2c(nc(/C=C/c3ccc(Cl)cc3)n2C)n(CCC)c1=O [Compound 6, 8-[(E)-4-Chlorostyryl]-7-methyl-1,3-dipropylxanthine]",MLD,dd male mice,>300 mg/kg
"CCCn1c(=O)c2c(nc(/C=C/c3ccc(OC)cc3)n2C)n(CCC)c1=O [Compound 10, 1,3-Dipropyl-8-[(E)-4-methoxystyryl]-7-methylxanthine]",Ki,Adenosine A₁ receptor,2 µM
same,inhibition at 100 µM,Adenosine A₁ receptor,86%
same,inhibition at 10 µM,Adenosine A₁ receptor,65%
same,MLD,dd male mice,>300 mg/kg
same,Ratio of Affinity with Receptor (A2 /A1 ),Adenosine A₂ receptor,51
same,inhibition at 100 µM,Adenosine A₂ receptor,95%
same,inhibition at 10 µM,Adenosine A₂ receptor,95%
"CCCn1c(=O)c2nc(/C=C/c3ccc(OC)c(OC)c3)[nH]c2n(CCC)c1=O [Compound 11, 8-[(E)-3,4-Dimethoxystyryl]-1,3-dipropylxanthine]",MLD,dd male mice,>300 mg/kg
"CCCn1c(=O)c2c(nc(/C=C/c3ccc(Cl)c(Cl)c3)n2C)n(CCC)c1=O [Compound 8, 8-[(E)-3,4-Dichlorostyryl]-1,3-dipropyl-7-methylxanthine]",MLD,dd male mice,>300 mg/kg
"Cn1c(=O)c2[nH]cnc2n(C)c1=O [Theophylline, theophylline, reference compound]",minimal effective dose,ddY male mice,20 mg/kg
"CCCn1c(=O)c2c(nc(/C=C/c3ccc(OC)c(OC)c3)n2C)n(CCC)c1=O [Compound 12, 8-[(E)-3,4-Dimethoxystyryl]-1,3-dipropyl-7-methylxanthine]",Ki,Adenosine A₁ receptor,3.1 µM
same,inhibition at 100 µM,Adenosine A₁ receptor,74%
same,inhibition at 10 µM,Adenosine A₁ receptor,61%
same,MLD,dd male mice,>300 mg/kg
same,minimal effective dose,ddY male mice,0.63 mg/kg
same,inhibition at 100 µM,Adenosine A₂ receptor,97%
same,inhibition at 10 µM,Adenosine A₂ receptor,96%
"COc1cc(/C=C/c2nc3c(c(=O)n(C)c(=O)n3C)n2C)cc(OC)c1OC [Comparative Compound X, 1,3,7-trimethyl-8-[(E)-3,4,5-trimethoxystyryl]xanthine, reference compound]",inhibition at 100 µM,calvaria,55%
same,"Ca Concentration (mg/dl) (n = 6, mean +/- S.E.M.)",calvaria,10.32 ± 0.13 mg/dL
same,bone absorption by PTH (result in words),calvaria,significantly inhibited bone absorption by PTH
"CCCn1c(=O)c2nc(/C(C)=C/c3ccccc3)[nH]c2n(CCC)c1=O [Compound 3, 1,3-Dipropyl-8-[(E)-α-methylstyryl]xanthine]",MLD,dd male mice,>300 mg/kg
"CCCn1c(=O)c2[nH]c(/C=C/c3ccco3)nc2n(CCC)c1=O [Compound 15, 1,3-Dipropyl-8-[2-(E)-(2-furyl)vinyl]xanthine]",MLD,dd male mice,>300 mg/kg
"CCCn1c(=O)c2nc(/C=C/c3ccc(Cl)c(Cl)c3)[nH]c2n(CCC)c1=O [Compound 7, 8-[(E)-3,4-Dichlorostyryl]-1,3-dipropylxanthine]",MLD,dd male mice,>300 mg/kg
"CCCn1c(=O)c2c(nc(/C=C/c3ccccc3)n2C)n(CCC)c1=O [Compound 2, 1,3-Dipropyl-7-methyl-8-(E)-styrylxanthine]",Ki,Adenosine A₁ receptor,1.4 µM
same,inhibition at 100 µM,Adenosine A₁ receptor,82%
same,inhibition at 10 µM,Adenosine A₁ receptor,64%
same,minimal effective dose,ddY male mice,1.25 mg/kg
same,Ratio of Affinity with Receptor (A2 /A1 ),Adenosine A₂ receptor,52
same,inhibition at 100 µM,Adenosine A₂ receptor,96%
same,inhibition at 10 µM,Adenosine A₂ receptor,95%
"CCCn1c(=O)c2nc(/C=C/c3ccccc3)[nH]c2n(CCC)c1=O [Compound 1, 1,3-Dipropyl-8-(E)-styrylxanthine]",MLD,dd male mice,>300 mg/kg
"CCCn1c(=O)c2c(nc(/C(C)=C/c3ccccc3)n2C)n(CCC)c1=O [Compound 4, 1,3-Dipropyl-7-methyl-8-[(E)-α-methylstyryl]xanthine]",MLD,dd male mice,>300 mg/kg
"CCCn1c(=O)c2nc(/C=C/c3cc(OC)c(OC)c(OC)c3)[nH]c2n(CCC)c1=O [Compound 13, 1,3-Dipropyl-8-[(E)-3,4,5-trimethoxystyryl]xanthine]",MLD,dd male mice,>300 mg/kg
